Experimental data from patent US20260224573A1, “CRYSTAL FORM OF COMPOUND, AND PREPARATION METHOD AND USE THEREOF” (FELICAMED BIOTECHNOLOGY CO., LTD., priority 2023, published 2026).
In brackets after ≈: the same amount, converted by molar mass. Like-named read-outs stand apart in the source and are kept apart here.

How the values were obtained:
[1] = Protocol: A method for testing the density and the tapped density included: (1) a certain mass of to-be-assessed sample was placed into a 5 mL measuring cylinder, and the volume at this moment was recorded. The bulk density was calculated by dividing the mass of the sample by the volume at this moment. (2) The measuring cylinder was slightly tapped 200 times, the final volume was recorded, and the tapped density was calculated by dividing the mass of the sample by the final volume. (3) Three parallel tests were conducted. A method for testing the angle of repose included: (1) a funnel was fixed vertically to a bottom surface, and the material was slowly placed into the funnel. (2) A well-proportioned cone of the material was formed on the bottom surface. The height and bottom surface diameter of the cone were measured. (3) Three parallel tests were conducted.
[2] = remark: listed apart in the source
Source text: DVS isotherms were collected on an SMS (Surface Measurement Systems) DVS Intrinsic.

[3] = Assessment of dynamic solubility; format: physicochemical; conditions: for FC: crystal transfer (XRPD of solid) / pH of filtrate: 37° C.; for solubility / solubility at 1 h / solubility at 2 h / solubility at 4 h / solubility at 24 h: 37 °C, thermodynamic from solid; for solubility at 1 h / solubility at 2 h / solubility at 4 h / solubility at 24 h: read-out: S: solubility, calculated as free form
[4] = Pharmacokinetics of free crystal form A in Beagle dogs; format: in vivo; conditions: for MRT last: read-out: MRT0-t; for bioavailability: from average AUC0-t after dose correction, read-out: F (oral bioavailability)
Protocol: All the animals in this experiment were randomly divided into 4 groups (3 dogs/sex/group). The animals in the group A, the group B, and the group D were fasted before administration, and the animals in the group C were fasted before the first administration and the last administration. All the animals were fasted for at least 12 h before administration, and food was resumed 4 h after administration. All the animals had free access to water and food during the experiment. The animals in the group A were intravenously injected with the drug at 2 mg/kg, and blood samples were collected from the jugular vein before and 0.033 […], and 24 h after administration. The animals in the group B and the group D received single intragastric administration of the drugs at 2 mg/kg and 20 mg/kg, respectively, and blood samples were collected from the jugular vein before and 0.083 […], and 24 h after administration. […] Blood samples were collected from the jugular vein before the first administration and the seventh administration and 0.083 […], and 24 h after administration. Blood samples were collected from the jugular vein before administration and 0.5 h after administration from the second administration to the sixth administration. The sample collected before the second administration was the sample collected 24 h after the first administration. The blood samples from the animals were collected through the jugular vein, with a blood sample volume of 0.5 mL/time. All collected whole blood samples were placed in centrifuge tubes containing ethylene diamine tetraacetic acid potassium salt (EDTA-K2), and the centrifuge tubes were turned upside down to allow the anticoagulant and blood to be fully mixed. All the samples were placed on wet ice before centrifugation and centrifuged at 1524 g for 10 min to separate plasma. The plasma samples were transferred to new centrifuge tubes and stored at -90° C. to […] until analysis. The drug concentration in the plasma of each Beagle dog was determined by liquid chromatography with tandem mass spectrometry (LC-MS/MS). The obtained plasma concentration data was analyzed by using the pharmacokinetic processing software WinNonlin 8.0 with a non-compartmental model to calculate relevant pharmacokinetic parameters.

[5] = Assessment of 24-h solubility in pH buffers; format: physicochemical; conditions: room temperature
[6] = TGA weight loss / thermal stability; format: physicochemical
Source text: TGA and DSC patterns were collected on a TA Q5000 thermogravimetric analyzer and a TA Discovery 2500 differential scanning calorimeter, respectively.
TGA results were collected on a TA Discovery 5500 thermogravimetric analyzer, and DSC results were collected on a TA Discovery 2500 differential scanning calorimeter.

[7] = both sexes, Beagle, dog, plasma, po, 2 mg/kg, i.g. 2 mg/kg single, male/female mean
[8] = both sexes, Beagle, dog, plasma, po, 6 mg/kg, i.g. 6 mg/kg once a day, seventh administration, male/female mean
[9] = both sexes, Beagle, dog, plasma, po, 6 mg/kg, i.g. 6 mg/kg, first administration, male/female mean
[10] = both sexes, Beagle, dog, plasma, po, 20 mg/kg, i.g. 20 mg/kg single, male/female mean
[11] = both sexes, Beagle, dog, plasma, po, i.g. 2 mg/kg single, male/female mean
[12] = both sexes, Beagle, dog, plasma, po, i.g. 6 mg/kg once a day, seventh administration, male/female mean
[13] = both sexes, Beagle, dog, plasma, po, i.g. 6 mg/kg, first administration, male/female mean
[14] = both sexes, Beagle, dog, plasma, po, i.g. 20 mg/kg single, male/female mean
[15] = both sexes, beagle, dog, plasma, iv, 2 mg/kg, i.v. 2 mg/kg, male and female, mean
[16] = both sexes, beagle, dog, plasma, iv, i.v. 2 mg/kg, male and female, mean

CC[S@@](=N)(=O)C[C@H]1CC[C@H](N(C)c2ncnc3[nH]ccc23)CC1 [Free crystal form A]
flowability ([1]; conclusion from Carr index and angle of repose): high flowability
Bulk density ([1]; single tests 1 to 3): 0.11 g/mL
Tapped density ([1]; single tests 1 to 3, tapped 200 times): 0.23 g/mL
Average bulk density ([1]; three parallel tests): 0.11 g/mL
Average tapped density ([1]; three parallel tests, tapped 200 times): 0.23 g/mL
hygroscopicity ([2]; 25° C./80% RH): slight hygroscopicity
Crystal transformation after DVS ([2]; XRPD before and after DVS): No
FC: crystal transfer (XRPD of solid) ([3]; FaSSIF, 1 h): No
pH of filtrate ([3]; FaSSIF, 1 h): 6.6
FC: crystal transfer (XRPD of solid) ([3]; FaSSIF, 2 h): No
pH of filtrate ([3]; FaSSIF, 2 h): 6.6
FC: crystal transfer (XRPD of solid) ([3]; FaSSIF, 4 h): No
pH of filtrate ([3]; FaSSIF, 4 h): 6.6
FC: crystal transfer (XRPD of solid) ([3]; FaSSIF, 24 h): No
pH of filtrate ([3]; FaSSIF, 24 h): 6.6
FC: crystal transfer (XRPD of solid) ([3]; FeSSIF, 1 h): No
pH of filtrate ([3]; FeSSIF, 1 h): 5.3
FC: crystal transfer (XRPD of solid) ([3]; FeSSIF, 2 h): No
pH of filtrate ([3]; FeSSIF, 2 h): 5.3
FC: crystal transfer (XRPD of solid) ([3]; FeSSIF, 4 h): No
pH of filtrate ([3]; FeSSIF, 4 h): 5.3
FC: crystal transfer (XRPD of solid) ([3]; FeSSIF, 24 h): No
solubility ([3]; H2O and FaSSIF, water, in H2O and FaSSIF): 2100 to 2400 µg/mL (≈ 6.26 to 7.15 mM)
FC: crystal transfer (XRPD of solid) ([3]; H2O, 1 h): No
FC: crystal transfer (XRPD of solid) ([3]; H2O, 2 h): No
FC: crystal transfer (XRPD of solid) ([3]; H2O, 4 h): No
pH of filtrate ([3]; H2O, 4 h): 6.7
FC: crystal transfer (XRPD of solid) ([3]; H2O, 24 h): No
solubility ([3]; SGF and FeSSIF, simulated gastric fluid, in SGF and FeSSIF, sample not fully dissolved): 9000 to 10000 µg/mL (≈ 26.8 to 29.8 mM)
FC: crystal transfer (XRPD of solid) ([3]; SGF, 1 h): No
FC: crystal transfer (XRPD of solid) ([3]; SGF, 2 h): No
pH of filtrate ([3]; SGF, 2 h): 5.2
FC: crystal transfer (XRPD of solid) ([3]; SGF, 4 h): No
pH of filtrate ([3]; SGF, 4 h): 5.2
FC: crystal transfer (XRPD of solid) ([3]; SGF, 24 h): No
solubility at 1 h ([3]; fed state simulated intestinal fluid (FeSSIF), fessif, FeSSIF, 1 h): 9400 µg/mL (≈ 28 mM)
solubility at 2 h ([3]; fed state simulated intestinal fluid (FeSSIF), fessif, FeSSIF, 2 h): 9200 µg/mL (≈ 27.4 mM)
solubility at 4 h ([3]; fed state simulated intestinal fluid (FeSSIF), fessif, FeSSIF, 4 h): 9400 µg/mL (≈ 28 mM)
solubility at 24 h ([3]; fed state simulated intestinal fluid (FeSSIF), fessif, FeSSIF, 24 h): 9900 µg/mL (≈ 29.5 mM)
solubility at 1 h ([3]; simulated gastric fluid (SGF), simulated gastric fluid, SGF, 1 h): 9000 µg/mL (≈ 26.8 mM)
solubility at 2 h ([3]; simulated gastric fluid (SGF), simulated gastric fluid, SGF, 2 h): 8900 µg/mL (≈ 26.5 mM)
solubility at 4 h ([3]; simulated gastric fluid (SGF), simulated gastric fluid, SGF, 4 h): 8800 µg/mL (≈ 26.2 mM)
solubility at 24 h ([3]; simulated gastric fluid (SGF), simulated gastric fluid, SGF, 24 h): 9100 µg/mL (≈ 27.1 mM)
AUC(0-t) [4, 7]: 8750 ng·h/mL
MRT last [4, 7]: 5.37 h
AUC(0-t) [4, 8]: 26600 ng·h/mL
MRT last [4, 8]: 5.12 h
AUC(0-t) [4, 9]: 30000 ng·h/mL
MRT last [4, 9]: 5.49 h
AUC(0-t) [4, 10]: 101000 ng·h/mL
MRT last [4, 10]: 5.2 h
bioavailability ([4]; both sexes, Beagle, dog, plasma, po, i.g. 2 mg/kg single): 88%
Cmax [4, 11]: 1350 ng/mL
Tmax [4, 11]: 1.33 h
half-life [4, 11]: 3.89 h
Cmax at 7 days [4, 12]: 4540 ng/mL
Tmax at 7 days [4, 12]: 0.75 h
half-life at 7 days [4, 12]: 4.1 h
bioavailability ([4]; both sexes, Beagle, dog, plasma, po, i.g. 6 mg/kg, first administration): 100%
Cmax [4, 13]: 4710 ng/mL
Tmax [4, 13]: 0.958 h
half-life [4, 13]: 4.2 h
bioavailability ([4]; both sexes, Beagle, dog, plasma, po, i.g. 20 mg/kg single): 101%
Cmax [4, 14]: 13300 ng/mL
Tmax [4, 14]: 0.792 h
half-life [4, 14]: 4.17 h
AUC(0-t) [4, 15]: 9940 ng·h/mL
MRT last [4, 15]: 4.3 h
C0 [4, 16]: 4250 ng/mL
clearance [4, 16]: 3.4 mL/min/kg
half-life [4, 16]: 3.68 h
Vd ([4]; both sexes, beagle, dog, plasma, iv, i.v. 2 mg/kg, male and female, mean, read-out: VdSS): 0.939 L/kg
drug accumulation ([4]; i.g. 6 mg/kg for 7 consecutive days): No significant drug accumulation
male-to-female ratio of AUC0-t ([4]; i.v. 2 mg/kg): 0.748
male-to-female ratio of C0 ([4]; i.v. 2 mg/kg): 0.758
clinical observation ([4]; i.v. 2 mg/kg, i.g. 2, 6, 20 mg/kg, before and after administration and blood sampling): no obvious abnormalities were found
FC: crystal transfer ([5]; Buffer (pH = 2.0)): No
FC: crystal transfer ([5]; Buffer (pH = 7.4)): No
solubility at 24 h ([5]; buffer pH 7.4, pH 7.4, aqueous buffer, thermodynamic from solid, Buffer (pH = 7.4), read-out: S: solubility, calculated as free form): 1700 µg/mL (≈ 5.07 mM)
thermal stability ([6]; comparison of TGA/DSC patterns): high
TGA weight loss ([6]; heated from room temperature to 180° C.): 1.7%
